Assay results published in patent US20140303144A1, “COMPOUNDS AND METHODS OF TREATING HYPERTENSION” (Medivation Technologies, Inc., priority 2011, published 2014).
Each block holds one compound with its values, some of them ahead of it.

Columns and labels:
[1] = system: SH-SY5Y cells; assay: Cell viability assay (MTS reduction) against 4-Br-A23187 challenge; type: cell-based; details: compound 10 nM, 4-Br-A23187 (2 μM) for 24 h; for viability at 0.01 µM: Homo sapiens, SH-SY5Y, Control = 100, Vehicle = 0, read-out: Relative Cytoprotective capacity; for Relative Cytoprotective capacity: Control = 100, Vehicle = 0
Protocol: SH-SY5Y cells cultured in DMEM/F12 media supplemented with 10% FBS were seeded in 96-well microplates at 150,000 cells/cm^2. After 24 h, cells were depleted from FBS and kept in culture for 24 h before the experiment. A stock solution was prepared by dissolving the calcium ionophore 4-Br-A23187 (Calbiochem Cat. N^o 100107) in DMSO at 25 mM. Cells were then treated with 4-Br-A23187 (2 μM), hydrogen peroxide (300 μM) or the mitochondrial toxin rotenone (25 μM) in the presence of vehicle or Compound of the Invention for 24 h. Cell death was determined by measurements of LDH release according to the Cytotoxicity Detection KitPlus (Roche, Mannheim, Germany). Cell viability was determined by measuring the capacity of cells to metabolize MTS tetrazolium (MTS) according to the Cytotoxicity Detection KitPlus (Roche, Mannheim, Germany) and MTS reduction was assessed by the CellTiter 96® AQueous One Solution Cell Proliferation assay (Promega Corporation, Madison, Wis., USA). Compounds were screened at 10 nM, using DMSO as vehicle. Assay results for the experiments with Br-A23187 were presented as the MTS reduction capacity (cell viability) of untreated cells (control), 4-Br-A23187-treated cells (vehicle), and co-incubation of Br-A23187 with Compounds of the Invention treated cells and using […] (FCCP) at 10 μM for 30 min as a control. This assay assesses the ability of the test compounds to protect against cell death that was mediated by mitochondrial dysfunction. In the assay, the calcium ionophore 4-Br-A23187 was used to challenge the cells, causing calcium levels to rise in mitochondria, which leads to depolarization and cell death. Test compounds were assessed for their ability to prevent cell death in response to challenge with 4-Br-A23187.

[2] = target: T1, human recombinant adrenergic α2A receptor (Homo sapiens, UniProt P08913); assay: Adrenergic α2A radioligand binding assay ([3H]MK-912); details: 0.1 μM compound; read-out: Percentage inhibition of ligand binding, Adrenergic α2A
T1 construct: expressed in transfected cells; host or cells: insect Sf9 cells
T1 sequence (P08913 1-465): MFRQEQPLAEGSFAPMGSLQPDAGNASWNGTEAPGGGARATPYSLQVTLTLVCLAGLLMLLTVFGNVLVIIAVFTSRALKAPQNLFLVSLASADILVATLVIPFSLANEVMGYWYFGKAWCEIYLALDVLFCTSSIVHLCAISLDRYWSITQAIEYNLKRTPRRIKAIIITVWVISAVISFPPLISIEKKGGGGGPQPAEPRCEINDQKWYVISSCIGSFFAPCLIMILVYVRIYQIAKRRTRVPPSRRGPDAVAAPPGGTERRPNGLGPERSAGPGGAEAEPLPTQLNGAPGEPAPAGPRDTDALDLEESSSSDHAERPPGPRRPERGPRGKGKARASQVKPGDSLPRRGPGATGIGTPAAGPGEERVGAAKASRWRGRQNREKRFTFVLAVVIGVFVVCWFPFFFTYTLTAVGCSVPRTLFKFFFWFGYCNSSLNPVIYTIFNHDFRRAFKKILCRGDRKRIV
Protocol: To evaluate in radioligand binding assays the activity of compounds of the invention, human recombinant adrenergic α2A receptor expressed in insect Sf9 cells (Uhlen, S. et al, J. Pharmacol. Exp. Ther. 271:1558, 1994) in a modified Tris-HCl buffer (50 mM Tris-HCl, pH 7.4, 12.5 mM MgCl2, 2 mM EDTA) was used. Compounds of invention were incubated with 1 nM [^3H]MK-912 for 60 min at 25° C. MK912 was (2S-trans)-1,3,4,5′,6,6′,7,12b-octahydro-1′,3′-dimethyl-spiro[2H-benzofuro[2,3-a]quinolizine-2,4′(1′H)-pyrimidin]-2′(3′H)-one hydrochloride Non-specific binding was estimated in the presence of 10 μM WB-4101 (2-(2,6-Dimethoxyphenoxyethyl)aminomethyl-1,4-benzodioxane hydrochloride). Receptor proteins were filtered and washed, the filters were then counted to determine [^3H]MK-912 specifically bound. Compounds were screened at 1 μM or lower, using 1% DMSO as vehicle. Compounds of the invention were tested in this biochemical assay and percent inhibition of specific binding was determined. Biochemical assay results are presented as the percent inhibition of specific binding in Tables B1A-B1D.

[3] = target: T2, rat adrenergic α1B receptor obtained from Wistar Rat liver (Rattus norvegicus, UniProt P15823); assay: Adrenergic α1B radioligand binding assay ([3H]Prazosin); details: 0.1 μM compound; read-out: Percentage inhibition of ligand binding, Adrenergic α1B
T2 construct: rat adrenergic α1B receptor obtained from Wistar Rat liver; from tissue; host or cells: Wistar rat liver
T2 sequence (P15823 1-515): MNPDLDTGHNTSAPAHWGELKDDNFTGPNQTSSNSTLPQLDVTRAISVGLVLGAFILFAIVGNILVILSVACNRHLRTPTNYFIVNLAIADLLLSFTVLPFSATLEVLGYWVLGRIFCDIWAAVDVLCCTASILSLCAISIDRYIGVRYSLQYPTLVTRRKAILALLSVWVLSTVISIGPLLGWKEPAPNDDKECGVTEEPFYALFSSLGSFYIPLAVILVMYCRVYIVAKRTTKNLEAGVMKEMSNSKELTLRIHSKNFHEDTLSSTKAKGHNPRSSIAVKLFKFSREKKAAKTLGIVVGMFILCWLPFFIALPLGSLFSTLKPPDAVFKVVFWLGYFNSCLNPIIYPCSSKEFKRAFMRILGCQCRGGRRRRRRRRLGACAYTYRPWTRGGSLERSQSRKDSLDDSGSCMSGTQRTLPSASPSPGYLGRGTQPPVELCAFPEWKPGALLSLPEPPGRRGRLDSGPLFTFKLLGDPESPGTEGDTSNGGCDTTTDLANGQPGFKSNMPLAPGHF
Protocol: To evaluate in radioligand binding assays the activity of compounds of the invention, rat adrenergic α1B receptor obtained from Wistar Rat liver (Garcia-S'ainz, J. et al, Biochem. Biophys. Res. Commun. 186:760, 1992; Michel, A. et al, Br. J. Pharmacol. 98:883, 1989) in a modified Tris-HCl buffer (50 mM Tris-HCl buffer, pH 7.4, 0.5 mM EDTA) was used. Compounds of the invention were incubated with 0.25 nM [^3H]Prazosin for 60 min at 25° C. Non-specific binding was estimated in the presence of 10 μM phentolamine. Receptor proteins were filtered and washed, the filters were then counted to determine [^3H]Prazosin specifically bound. Compounds were screened at 1 μM or lower, using 1% DMSO as vehicle. Compounds of the invention were tested in this biochemical assay and percent inhibition of specific binding was determined. Biochemical assay results are presented as the percent inhibition of specific binding in Tables B1A-B1D.

[4] = target: T3, human recombinant adrenergic α2B receptor (Homo sapiens, UniProt P18089); assay: Adrenergic α2B radioligand binding assay ([3H]Rauwolscine); details: 0.03 μM compound; read-out: Percentage inhibition of ligand binding, Adrenergic α2B
T3 construct: expressed in transfected cells; host or cells: CHO-K1 cells
T3 sequence (P18089 1-450): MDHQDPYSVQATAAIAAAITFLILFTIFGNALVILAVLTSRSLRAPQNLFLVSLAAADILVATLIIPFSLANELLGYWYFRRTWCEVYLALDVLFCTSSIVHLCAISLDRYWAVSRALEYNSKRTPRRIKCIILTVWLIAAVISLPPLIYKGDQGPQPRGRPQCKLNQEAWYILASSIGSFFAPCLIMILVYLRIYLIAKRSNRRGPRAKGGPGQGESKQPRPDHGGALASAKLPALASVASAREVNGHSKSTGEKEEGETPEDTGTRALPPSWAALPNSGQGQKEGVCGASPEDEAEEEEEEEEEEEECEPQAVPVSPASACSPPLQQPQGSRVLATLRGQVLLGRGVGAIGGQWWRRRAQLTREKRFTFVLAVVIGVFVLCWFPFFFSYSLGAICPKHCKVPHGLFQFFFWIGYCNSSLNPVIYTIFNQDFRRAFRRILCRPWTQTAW
Protocol: To evaluate in radioligand binding assays the activity of compounds of the invention, human recombinant adrenergic α2B receptor expressed in Chinese hamster ovary (CHO) K1 cells (Uhlen, S. et al, Eur. J. Pharmacol. 343(1):93, 1998) in a modified Tris-HCl buffer (50 mM Tris-HCl, pH 7.4, 12.5 mM MgCl2, 1 mM EDTA, 0.2% BSA) was used. Compounds of the invention were incubated with 2.5 nM [3H]Rauwolscine for 60 min at 25° C. Non-specific binding was estimated in the presence of 10 μM Prazosin. Receptor proteins were filtered and washed, the filters were then counted to determine [3H]Rauwolscine specifically bound. Compounds were screened at 1 μM or lower, using 1% DMSO as vehicle. Compounds of the invention were tested in this biochemical assay and percent inhibition of specific binding was determined. Biochemical assay results are presented as the percent inhibition of specific binding in Tables B1A-B1D.

SMILES: Cc1ccc2c(c1)c1c3n2CC(C)(c2ccncc2)OC(C)CC3(C)CN(C)C1 (centres unmarked) [D9]
viability at 0.01 µM [1]: 81.1%

SMILES: Cc1ccc2c(c1)c1c3n2CC(c2ccc(F)cc2)CC3(C)CN(C)C1 (centres unmarked) [D2]
viability at 0.01 µM [1]: 38.4%

SMILES: CN1CCc2[nH]c3c(NCc4ccccc4)cccc3c2C1 [A3]
viability at 0.01 µM [1]: 35.1%

inhibition at 0.1 µM [2]: 7% | inhibition at 0.1 µM [3]: -1% | inhibition at 0.03 µM [4]: 26%
SMILES: Cc1cc(CC(O)c2ccncc2)c2[nH]c3c(c2c1)CN(C)CC3 (centres unmarked) [A43]

SMILES: Cc1ccc2c(c1)c1c(n2C)C(C)(CCc2nc(-c3ccccc3)cs2)CN(C)C1 (centres unmarked) [C48]
Relative Cytoprotective capacity [1]: 52.14

SMILES: Cc1ccc2c(c1)c1c(n2C)C(C)(CCc2ccccc2)CN(C)C1 (centres unmarked) [C44]
Relative Cytoprotective capacity [1]: −0.6342

inhibition at 0.1 µM [2]: -5% | inhibition at 0.1 µM [3]: -3% | inhibition at 0.03 µM [4]: 31%
SMILES: Cc1cc(CC(O)c2ccncc2)c2c(c1)c1c(n2C)CCN(C)C1 (centres unmarked) [A44]
